pIC50: −log10 of the molar value. Bounds are passed on as bounds.

This test concerns the target T1, Human MTHFD2 (Homo sapiens, UniProt P13995).
T1 construct: residues 36-350 in Uniport ID P13995; His6 (N); made in house; host or cells: E. coli
T1 sequence (P13995 36-350): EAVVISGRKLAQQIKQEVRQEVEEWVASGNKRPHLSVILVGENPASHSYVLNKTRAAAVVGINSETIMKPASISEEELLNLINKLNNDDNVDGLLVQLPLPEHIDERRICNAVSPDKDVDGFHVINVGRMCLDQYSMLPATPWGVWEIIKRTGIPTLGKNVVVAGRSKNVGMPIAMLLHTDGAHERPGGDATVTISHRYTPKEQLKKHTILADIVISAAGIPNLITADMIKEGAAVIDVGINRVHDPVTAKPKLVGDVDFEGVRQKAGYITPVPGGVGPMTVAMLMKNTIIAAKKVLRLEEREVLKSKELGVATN
As to the kind of experiment: MTHFD2 Activity Assay (dehydrogenase activity, diaphorase/resazurin coupled fluorescence). It is filed as biochemical. Particulars: inhibitory activity (IC50 and/or binding constant); 0.2 nM MTHFD2, 11 concentrations. In outline:
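Resorufin fluorescence (ex 525, em 598 nm) reports NADH formed by the dehydrogenase via diaphorase coupling. Enzyme (0.2 nM, residues 36-350, N-His6) sat with compound 15 min before 70 μM CH2-THF and 1 mM NAD+ started a 30 min reaction. IC50s come from 4-parameter fits over 11 concentrations.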
Regarding `CC(N)c1nc2c(c(=O)n(Cc3ccc4c(C5CC5)cccc4c3)c(=O)n2C)n1C` (centres unmarked) [Example 452, 8-(1-aminoethyl)-1-((5-cyclopropylnaphthalen-2-yl)methyl)-3,7-dimethyl-1H-purine-2,6(3H,7H)-dione], the pIC50 was 6.00 to 8.00.
`CC(c1ccc(Cl)c(Cl)c1)n1c(=O)c2c(nc(NCCCO)n2C)n(C)c1=O` (centres unmarked) [Example 72, 1-[1-(3,4-dichlorophenyl)ethyl]-8-[(3-hydroxypropyl)amino]-3,7-dimethyl-2,3,6,7-tetrahydro-1H-purine-2,6-dione] showed a negative-log IC50 (pIC50) of under 5.00.
Regarding `C/C(=N/O)c1nc2c(c(=O)n(Cc3cc4c(Cl)cccc4[nH]3)c(=O)n2C)n1C` [Example 481, (Z)-1-((4-chloro-1H-indol-2-yl)methyl)-8-(1-(hydroxyimino)ethyl)-3,7-dimethyl-1H-purine-2,6(3H,7H)-dione or (E)-1-((4-chloro-1H-indol-2-yl)methyl)-8-(1-(hydroxyimino)ethyl)-3,7-dimethyl-1H-purine-2,6(3H,7H)-dione], the negative-log IC50 (pIC50) was 6.00 to 8.00.
With `Cc1ccc2[nH]c(Cn3c(=O)c4c(nc(CCN5CCOCC5)n4C)n(C)c3=O)cc2c1` [Example 227, 3,7-dimethyl-1-((5-methyl-1H-indol-2-yl)methyl)-8-(2-morpholinoethyl)-1H-purine-2,6(3H,7H)-dione], the negative-log IC50 (pIC50) is 5.30 to 6.00.
In the case of `Cn1c(N[C@H]2CCC(=O)NC2)nc2c1c(=O)n(Cc1ccc(Cl)c(Cl)c1)c(=O)n2C` (single isomer, unassigned) [Example 83, (5)-1-(3,4-dichlorobenzyl)-3,7-dimethyl-8-(6-oxopiperidin-3-ylamino)-1H-purine-2,6(3H,7H)-dione or (R)-1-(3,4-dichlorobenzyl)-3,7-dimethyl-8-(6-oxopiperidin-3-ylamino)-1H-purine-2,6(3H,7H)-dione] it was 6.00 to 8.00; in that of `Cn1c(N[C@H]2CC[C@@H](O)C2)nc2c1c(=O)n(Cc1cc3cc(Cl)ccc3[nH]1)c(=O)n2C` (racemic) [Example 175, (±)-1-((5-chloro-1H-indol-2-yl)methyl)-8-((cis)-3-hydroxycyclopentylamino)-3,7-dimethyl-1H-purine-2,6(3H,7H)-dione], 6.00 to 8.00.
In turn, `Cn1c(CCN2CCOCC2)nc2c1c(=O)n(Cc1ccc(Cl)c(Cl)c1)c(=O)n2C` [Example 159, 1-(3,4-dichlorobenzyl)-3,7-dimethyl-8-(2-morpholinoethyl)-1H-purine-2,6(3H,7H)-dione] gave a negative logarithm of the IC50 (pIC50) of 6.00 to 8.00.
Molecule `Cn1c(Nc2ccncc2)nc2c1c(=O)n(Cc1cc3cccc(Cl)c3[nH]1)c(=O)n2C` [Example 373, 1-[(7-chloro-1H-indol-2-yl)methyl]-3,7-dimethyl-8-(4-pyridylamino)purine-2,6-dione] showed a pIC50 of 6.00 to 8.00.
As to `CCc1cccc2[nH]c(Cn3c(=O)c4c(nc(Nc5ccncc5)n4C)n(C)c3=O)cc12` [Example 387, 1-((4-ethyl-1H-indol-2-yl)methyl)-3,7-dimethyl-8-(pyridin-4-ylamino)-1H-purine-2,6(3H,7H)-dione], the pIC50 is 6.00 to 8.00.
In turn, `Cc1cccc2cc(Cn3c(=O)c4c(nc(Nc5ccncc5)n4C)n(C)c3=O)[nH]c12` [Example 365, 3,7-dimethyl-1-[(7-methyl-1H-indol-2-yl)methyl]-8-(4-pyridylamino)purine-2,6-dione] had a pIC50 of 6.00 to 8.00.
In the case of `Cc1cccc2cc(Cn3c(=O)c4c(nc(Nc5ccncc5)n4C)n(C)c3=O)ccc12` [Example 410, 3,7-dimethyl-1-((5-methylnaphthalen-2-yl)methyl)-8-(pyridin-4-ylamino)-1H-purine-2,6(3H,7H)-dione], the negative logarithm of the IC50 (pIC50) is 6.00 to 8.00.
With `C[C@H](O)CNc1nc2c(c(=O)n(Cc3ccc(Cl)cc3)c(=O)n2C)n1C` [Example 18, 1-[(4-chlorophenyl)methyl]-8-{[(2S)-2-hydroxypropyl]amino}-3,7-dimethyl-2,3,6,7-tetrahydro-1H-purine-2,6-dione], the pIC50 is 5.00 to 5.30.
As for `Cn1c(Nc2ccc(S(C)(=O)=O)cc2)nc2c1c(=O)n(Cc1cc3c(Cl)cccc3[nH]1)c(=O)n2C` [Example 367, 1-[(4-chloro-1H-indol-2-yl)methyl]-3,7-dimethyl-8-(4-methylsulfonylanilino)purine-2,6-dione], the negative logarithm of the IC50 (pIC50) was 6.00 to 8.00.
As for `Cn1c(N[C@H]2CCC(=O)NC2)nc2c1c(=O)n(Cc1cc3ccccc3[nH]1)c(=O)n2C` (single isomer, unassigned) [Example 228, (S)-1-((1H-indol-2-yl)methyl)-3,7-dimethyl-8-(6-oxopiperidin-3-ylamino)-1H-purine-2,6(3H,7H)-dione or (R)-1-((1H-indol-2-yl)methyl)-3,7-dimethyl-8-(6-oxopiperidin-3-ylamino)-1H-purine-2,6(3H,7H)-dione], the pIC50 is 5.30 to 6.00.
In the case of `Cn1c(-n2cc(N)cn2)nc2c1c(=O)n(Cc1ccc(Cl)c(Cl)c1)c(=O)n2C` [Example 136] it was 6.00 to 8.00; in that of `Cn1c(N[C@H]2CC[C@@H](O)C2)nc2c1c(=O)n(Cc1nc3ccccc3[nH]1)c(=O)n2C` [Example 99, 1-((1H-benzo[d]imidazol-2-yl)methyl)-8-((1S,3R)-3-hydroxycyclopentylamino)-3,7-dimethyl-1H-purine-2,6(3H,7H)-dione], 5.30 to 6.00.
`Cn1c([C@H](N)Cc2cccnc2)nc2c1c(=O)n(Cc1cc3c(Cl)cccc3[nH]1)c(=O)n2C` [Example 470, (R)-8-(1-amino-2-(pyridin-3-yl)ethyl)-1-((4-chloro-1H-indol-2-yl)methyl)-3,7-dimethyl-1H-purine-2,6(3H,7H)-dione] showed a negative logarithm of the IC50 (pIC50) of 6.00 to 8.00.
Take `Cn1c(N[C@@H]2CCOC2)nc2c1c(=O)n(Cc1ccc(Cl)c(Cl)c1)c(=O)n2C` [Example 63, 1-[(3,4-dichlorophenyl)methyl]-3,7-dimethyl-8-{[(3R)-oxolan-3-yl]amino}-2,3,6,7-tetrahydro-1H-purine-2,6-dione]: the pIC50 is 6.00 to 8.00.
As to `Cn1c(N[C@H]2CCC[C@H](O)C2)nc2c1c(=O)n(Cc1ccc(Cl)c(Cl)c1)c(=O)n2C` (single isomer, unassigned) [Example 80, 1-(3,4-dichlorobenzyl)-8-((1S,3S)-3-hydroxycyclohexylamino)-3,7-dimethyl-1H-purine-2,6(3H,7H)-dione or 1-(3,4-dichlorobenzyl)-8-((1R,3R)-3-hydroxycyclohexylamino)-3,7-dimethyl-1H-purine-2,6(3H,7H)-dione], the pIC50 is 6.00 to 8.00.
`Cc1cccc2[nH]c(Cn3c(=O)c4c(nc(NC5CCCC(C(=O)O)C5)n4C)n(C)c3=O)cc12` (centres unmarked) [Example 342, 3-(3,7-dimethyl-1-((4-methyl-1H-indol-2-yl)methyl)-2,6-dioxo-2,3,6,7-tetrahydro-1H-purin-8-ylamino)cyclohexanecarboxylic acid] gave a pIC50 of 6.00 to 8.00.
In the case of `Cn1c(Nc2ccncc2)nc2c1c(=O)n(Cc1cc3ccncc3[nH]1)c(=O)n2C` [Example 393, 1-((1H-pyrrolo[2,3-c]pyridin-2-yl)methyl)-3,7-dimethyl-8-(pyridin-4-ylamino)-1H-purine-2,6(3H,7H)-dione] it was 5.00 to 5.30; in that of `Cn1c(C(N)C2CCCC2)nc2c1c(=O)n(Cc1cc3c(Cl)cccc3[nH]1)c(=O)n2C` (centres unmarked) [Example 464, 8-(amino(cyclopentyl)methyl)-1-((4-chloro-1H-indol-2-yl)methyl)-3,7-dimethyl-3,7-dihydro-1H-purine-2,6-dione], 6.00 to 8.00.
Take `Cn1c(NC2CCOCC2)nc2c1c(=O)n(Cc1ccc(Cl)c(Cl)c1)c(=O)n2C` [Example 48, 1-[(3,4-dichlorophenyl)methyl]-3,7-dimethyl-8-[(oxan-4-yl)amino]-2,3,6,7-tetrahydro-1H-purine-2,6-dione]: the pIC50 was 6.00 to 8.00.
Consider `Cn1cnc2c1c(=O)n(Cc1ccc3cc[nH]c3c1)c(=O)n2C` [Example 263, 1-((1H-indol-6-yl)methyl)-3,7-dimethyl-1H-purine-2,6(3H,7H)-dione], for which the pIC50 is 5.00 to 5.30.
`CCn1c(=O)n(Cc2cc3c(Cl)cccc3[nH]2)c(=O)c2c1nc(Nc1ccncc1)n2C` [Example 361, 1-((4-chloro-1H-indol-2-yl)methyl)-3-ethyl-7-methyl-8-(pyridin-4-ylamino)-1H-purine-2,6(3H,7H)-dione]: the pIC50 was 6.00 to 8.00.
The molecule `Cn1c(NC2CCCC(N)C2)nc2c1c(=O)n(Cc1ccc(Cl)c(Cl)c1)c(=O)n2C` (centres unmarked) [Example 85, 8-((3-aminocyclohexyl)amino)-1-(3,4-dichlorobenzyl)-3,7-dimethyl-3,7-dihydro-1H-purine-2,6-dione] had a pIC50 of 5.30 to 6.00.
For the molecule `Cn1c(CN)nc2c1c(=O)n(Cc1cc3c(Cl)cccc3[nH]1)c(=O)n2C` [Example 358, 8-(aminomethyl)-1-[(4-chloro-1H-indol-2-yl)methyl]-3,7-dimethyl-purine-2,6-dione], the pIC50 was 6.00 to 8.00.
As to `Cn1c(N[C@@H]2CCCC[C@H]2O)nc2c1c(=O)n(Cc1ccc(Cl)c(Cl)c1)c(=O)n2C` [Example 108, 1-(3,4-dichlorobenzyl)-8-((1R,2R)-2-hydroxycyclohexylamino)-3,7-dimethyl-1H-purine-2,6(3H,7H)-dione], the pIC50 was 5.30 to 6.00.
`Cn1c(Nc2ccnc(C3CC(C(=O)O)C3)c2)nc2c1c(=O)n(Cc1ccc(Cl)c(Cl)c1)c(=O)n2C` (centres unmarked) [Example 309, 3-(4-(1-(3,4-dichlorobenzyl)-3,7-dimethyl-2,6-dioxo-2,3,6,7-tetrahydro-1H-purin-8-ylamino)pyridin-2-yl)cyclobutanecarboxylic acid] showed a negative logarithm of the IC50 (pIC50) of 6.00 to 8.00.
